Values of other authors as cited in patent EP1362518A1, “Food product providing sustained blood levels of exogenous substances” (NESTEC S.A., priority 2002, dated 2003).

Experiments:
dogs = details: 100mg/kg/d (caffeine/body weight/day) consumed for more than 3 days
[1] = not given; remark: listed apart in the source

Cn1c(=O)c2c(ncn2C)n(C)c1=O [caffeine]
threshold value for stimulation (in vivo): about 2 mg/l blood plasma
threshold value of stimulation (in vivo): about 2 mg/l plasma
upper end of the desired range (side effects above this range): about 20 mg/l blood plasma
death (dogs): death can occur
half-life of caffeine ([1]; adults): 3 to 7 h
time of peak in caffeine level in blood ([1]; after consumption of a cup of coffee): about an hour
